Where two headings read alike, the source gives them in different places.
What was measured:
[1] = tested on: normal murine bone marrow colony formation; experiment: Normal murine bone marrow colony formation; assay type: cell-based; conditions: studies not shown (Tweardy et al 2010, unpublished)
STAT3 [2] = target: T1, STAT3 (Homo sapiens, UniProt P40763); experiment: STAT3/pY-peptide binding surface plasmon resonance (SPR) assay; conditions: for Inhibition of STAT3 binding to pY-peptide compared with C188: SPR; for IC50: STAT3 200 nM, EGFR pY1068 dodecapeptide, mean, n ≥ 2, read-out: pY-Peptide Binding (SPR) IC50
Method: (§1) The equilibrium binding levels obtained ± compound were normalized (resonance obtained in the presence of compound ÷ the resonance obtained in the absence of compound × 100) and plotted against Log [nM] […] B. Inhibition of ligand-stimulated STAT phosphorylation, measured by phosphoflow. Serum-starved (1 hour) Kasumi-1 cells, pre-incubated with compound/DMSO (1 hour), were treated with G-CSF (10 ng/ml, 15 min, left two panels) or IFN-γ (10ng/ml, 15 min, right panel). Cells were permeabilized and stained with Alexa647-pSTAT3, and PE-pSTAT1 antibodies and analyzed on BD LSR2. FCS files were uploaded to Cytobank for pSTAT3 and pSTAT1 quantitation. Histograms depicting pSTAT3 and pSTAT1 levels are shown. C. Mean fluorescence (pSTAT3/1) levels were plotted as function the Log [M] compound, and IC50 calculated using GraphPad. […] D. Inhibition of ligand-stimulated STAT phosphorylation, measured by Luminex. Serum-starved (1 hour) Kasumi-1 cells, pre-incubated with compound/DMSO (0/0.1/0.3/1/3/10/100 μM, 1 hour), were treated with G-CSF (10 ng/ml, 15′). Total protein extracts of cells were assayed for pSTAT3, pSTAT1, and GAPDH levels by Luminex. GAPDH-normalized pSTAT3 or pSTAT1 values were divided by this ratio for untreated cells and expressed in percentage. These values were plotted as a function of Log [M] compound, and IC50 values calculated using GraphPad. […]
3-D pharmacophore sorting used to evaluate the effect of each compound on STAT3 binding. Responses were normalized by dividing the […]
fingerprint screening were converted into 3-D structures compounds at 2 min and multiplying by 100. IC values […]
for analysis as described below. were determined by plotting % maximum response as a 3-D pharmacophore generation function of log concentration of compound and fitting the Each molecular chemical feature, including experimental points to a competitive binding model using hydrogen bond donor, hydrogen bond acceptor, positive a four parameter logistic equation: R = Rhigh − (Rhigh − R low)/ (1 + conc/A1)^A2, where R = percent response at and negative ionizable group, and hydrophobic region, inhibitor concentration, R = percent response with no was generated using the LigandScout application compound, R= percent response at highest compound high framework and projected into 3-D space. concentration, A2 = fitting parameter (slope) and A1 = low Feature-pairing IC50 (BIAevaluation Software version 4.1). The inhibition Each chemical feature was converted into distance constant (Ki) was derived from the Cheng-Prusoff bin and the complete set of distance bins used to construct equation Ki=IC50/(1+[C]/Kd) as used by Halling et al a cost matrix. The most favorable pairing based on cost where C stands for STAT3 concentration used in the SPR matrix was identified. assay and Kd denotes the dissociation constant for STAT3 3-D pharmacophore transformation binding to its phosphorylated EGFR ligand in the SPR […]
STAT3/pY-peptide binding assay and total protein extracted from cell pellets. […]
STAT3 binding assays were performed at 25 °C (Millipore, Danvers, MA) coupled to antibody against

pSTAT1 (Tyr-701) [3] = target: T2, pSTAT1 (Tyr-701) (Homo sapiens, UniProt P42224); experiment: Phosphoflow, IFN-γ-induced pSTAT1 in Kasumi-1 cells; assay type: cell-based
T2 construct: endogenous in cells; host or cells: Kasumi-1
T2 sequence (P42224 1-750): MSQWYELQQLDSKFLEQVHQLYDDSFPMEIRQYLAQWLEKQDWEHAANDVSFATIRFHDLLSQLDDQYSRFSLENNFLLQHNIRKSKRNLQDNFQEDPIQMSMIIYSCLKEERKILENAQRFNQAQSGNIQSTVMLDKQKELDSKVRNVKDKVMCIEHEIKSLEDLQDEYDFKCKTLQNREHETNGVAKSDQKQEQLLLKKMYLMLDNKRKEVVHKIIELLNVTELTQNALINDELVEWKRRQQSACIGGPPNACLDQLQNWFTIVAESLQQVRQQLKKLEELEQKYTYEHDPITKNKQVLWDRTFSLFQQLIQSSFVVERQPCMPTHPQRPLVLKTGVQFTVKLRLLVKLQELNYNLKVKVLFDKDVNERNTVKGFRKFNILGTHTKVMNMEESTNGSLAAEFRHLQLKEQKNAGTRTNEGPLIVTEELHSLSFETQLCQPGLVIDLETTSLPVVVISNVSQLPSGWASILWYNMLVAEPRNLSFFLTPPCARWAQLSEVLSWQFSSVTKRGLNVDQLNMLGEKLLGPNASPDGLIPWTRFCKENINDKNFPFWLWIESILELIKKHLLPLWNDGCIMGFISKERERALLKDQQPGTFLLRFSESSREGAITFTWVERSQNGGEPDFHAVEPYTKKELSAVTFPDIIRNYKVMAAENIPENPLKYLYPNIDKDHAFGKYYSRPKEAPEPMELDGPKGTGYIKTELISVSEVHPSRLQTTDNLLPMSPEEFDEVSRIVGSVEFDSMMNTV
Method: (§2) The equilibrium binding levels obtained ± compound were normalized (resonance obtained in the presence of compound ÷ the resonance obtained in the absence of compound × 100) and plotted against Log [nM] […] B. Inhibition of ligand-stimulated STAT phosphorylation, measured by phosphoflow. Serum-starved (1 hour) Kasumi-1 cells, pre-incubated with compound/DMSO (1 hour), were treated with G-CSF (10 ng/ml, 15 min, left two panels) or IFN-γ (10ng/ml, 15 min, right panel). Cells were permeabilized and stained with Alexa647-pSTAT3, and PE-pSTAT1 antibodies and analyzed on BD LSR2. FCS files were uploaded to Cytobank for pSTAT3 and pSTAT1 quantitation. Histograms depicting pSTAT3 and pSTAT1 levels are shown. C. Mean fluorescence (pSTAT3/1) levels were plotted as function the Log [M] compound, and IC50 calculated using GraphPad. […] D. Inhibition of ligand-stimulated STAT phosphorylation, measured by Luminex. Serum-starved (1 hour) Kasumi-1 cells, pre-incubated with compound/DMSO (0/0.1/0.3/1/3/10/100 μM, 1 hour), were treated with G-CSF (10 ng/ml, 15′). Total protein extracts of cells were assayed for pSTAT3, pSTAT1, and GAPDH levels by Luminex. GAPDH-normalized pSTAT3 or pSTAT1 values were divided by this ratio for untreated cells and expressed in percentage. These values were plotted as a function of Log [M] compound, and IC50 values calculated using GraphPad.
(§3) Phosphoflow analysis was done as described in Xu et al. Briefly, Kasumi-1 cells, were serum-starved, pre-treated with compound or DMSO (1 hour, RT) and then stimulated with 20 μl of GCSF (10 ng/ml) for 15 minutes at 37°C. The cells were then permeabilized and stained with Alexa647-pSTAT3, Alexa488-pSTAT5 and PE-pSTAT1 antibodies and analyzed using the BD LSR2. FCS files were exported and uploaded to Cytobank for determination of phosphoproteins as earlier. Gating was done on live, single cells and then gates selected for positive ligand-activated pSTAT3 and pSTAT1. IC50 values were calculated using the GraphPad Prism.

pSTAT5 = experiment: Phosphoflow, G-CSF-induced pSTAT5 in Kasumi-1 cells; assay type: cell-based; conditions: mean, n ≥ 2, read-out: Ligand Induced Phosphorylation (Phosphoflow) pSTAT5 (G-CSF) IC50
Method: as §3

pSTAT3 (Tyr-705) = target: T3, pSTAT3 (Tyr-705) (Homo sapiens, UniProt P40763); experiment: Phosphoflow, G-CSF-induced STAT3 phosphorylation in Kasumi-1 cells; assay type: cell-based; conditions: Kasumi-1, G-CSF 10 ng/ml 15 min; mean, n ≥ 2; read-out: Ligand Induced Phosphorylation (Phosphoflow) pSTAT3 (GCSF) IC50
T3 construct: endogenous in cells; host or cells: Kasumi-1
Method: as §2, §3

[4] = Maximum tolerated dose in mice; conditions: mouse, in vivo
UM-SCC-17B xenografts = experiment: UM-SCC-17B tumor xenograft growth in nude mice; assay type: in vivo; conditions: IP 5 times a week, 50 mg/kg/day
Method: (§4) Tumor volumes were measured twice weekly.
as §4

pSTAT3 [5] = target: pSTAT3 (Homo sapiens, UniProt P40763); experiment: pSTAT3 levels in UM-SCC-17B tumor xenografts (immunoblot); conditions: UM-SCC-17B xenografts, C188 50 mg/kg/day
Method: Tumor tissue was minced, homogenized and first), 50% PEG-400 (added second), 40% Saline (added proteins extracted using high-salt buffer, as described last) then vortexed and sonicated at concentration (10 mg/
C57BL/6 mice were provided in membrane (Millipore, Waltham, MA) and immunoblotted. triplicate, a single dose by body weight via either intra-Membranes were probed with antibody against peritoneal (IP) or oral (PO) route at 10 mg/kg at a volume STAT1 pY701 or STAT3 pY705 total STAT1 or STAT3 of 10 mL/kg and plasma samples collected as shown (Transduction labs, Lexington, KY) and β–actin (Abcam, in the study table below. At the indicated times, 3 mice Cambridge, MA). Membranes were stripped between per time point were euthanized per dose route and then

pSTAT1 (Tyr-701) [6] = target: T2, pSTAT1 (Tyr-701); experiment: Luminex bead-based assay, G-CSF-induced pSTAT1 in Kasumi-1 cells; assay type: cell-based; conditions: Figure 2D, Kasumi-1, G-CSF; read-out: Luminex pSTAT1 (Tyr-701) IC50, representative experiment
Method: as §1, with “GAPDH-normalized pSTAT3 or pSTAT1 values were divided by this ratio for untreated cells and expressed in percentage.” left out
for analysis as described below. were determined by plotting % maximum response as a 3-D pharmacophore generation function of log concentration of compound and fitting the Each molecular chemical feature, including experimental points to a competitive binding model using hydrogen bond donor, hydrogen bond acceptor, positive a four parameter logistic equation: R = Rhigh − (Rhigh − R low)/ (1 + conc/A1)^A2, where R = percent response at and negative ionizable group, and hydrophobic region, inhibitor concentration, R = percent response with no was generated using the LigandScout application compound, R= percent response at highest compound high framework and projected into 3-D space. concentration, A2 = fitting parameter (slope) and A1 = low Feature-pairing IC50 (BIAevaluation Software version 4.1). […]

MB-MDA-468 = MB-MDA-468 in vitro; read-out: Apoptosis EC50; cited from earlier work
UM-SCC-17B cells = experiment: Anchorage dependent growth (MTT); assay type: cell-based; conditions: Homo sapiens, 48 hrs
Method: GAPDH-normalized pSTAT3 or pSTAT1 values were divided by that for untreated cells and expressed in percentage. These values were plotted as a function of Log [M] compound, and IC50 values calculated using GraphPad. […] Viable cells quantitated using MTT. Relative % viability was measured by (viability after any treatment ÷ viability of untreated cells × 100) and plotted as a function of Log [M] […] C. […] Representative curves are shown.
Cells were cultured in triplicates in complete DMEM ± drug, in ultra-low attachment 96 well plates for 72 hrs or cell-culture treated plates for 48 hrs and viable cells were quantitated using MTT. Optical density (OD) was measured at 590 nm using a 96-well multi-scanner (EL-800 universal microplate reader, BioTek Inc, VT, USA). Relative % viability (viability after any treatment ÷ viability of untreated cells × 100) was plotted along Y-axis. At least 2 replicates experiments were performed and were used for IC50 calculation using GraphPad software.

tumor cells = conditions: read-out: IC50 killing of tumor cells; cited from earlier work
STAT3 [7] = target: T1, STAT3; design: method as in PMID 24308725; conditions: read-out: IC50 inhibition of STAT3 in a luciferase reporter assay; cited from earlier work
STAT3 [8] = target: T1, STAT3; design: method as in PMID 17114005; conditions: read-out: IC50 inhibition of STAT3 binding to pY-peptide; cited from earlier work
pSTAT3 [9] = conditions: read-out: IC50 inhibition of cytokine-induced pSTAT3 levels; cited from earlier work
[10] = Kasumi-1, IFN-γ 10 ng/ml 15 min, mean, n ≥ 2, read-out: Ligand Induced Phosphorylation (Phosphoflow) pSTAT1 (IFN-γ) IC50

T1 sequence (P40763 whole entry, species assumed): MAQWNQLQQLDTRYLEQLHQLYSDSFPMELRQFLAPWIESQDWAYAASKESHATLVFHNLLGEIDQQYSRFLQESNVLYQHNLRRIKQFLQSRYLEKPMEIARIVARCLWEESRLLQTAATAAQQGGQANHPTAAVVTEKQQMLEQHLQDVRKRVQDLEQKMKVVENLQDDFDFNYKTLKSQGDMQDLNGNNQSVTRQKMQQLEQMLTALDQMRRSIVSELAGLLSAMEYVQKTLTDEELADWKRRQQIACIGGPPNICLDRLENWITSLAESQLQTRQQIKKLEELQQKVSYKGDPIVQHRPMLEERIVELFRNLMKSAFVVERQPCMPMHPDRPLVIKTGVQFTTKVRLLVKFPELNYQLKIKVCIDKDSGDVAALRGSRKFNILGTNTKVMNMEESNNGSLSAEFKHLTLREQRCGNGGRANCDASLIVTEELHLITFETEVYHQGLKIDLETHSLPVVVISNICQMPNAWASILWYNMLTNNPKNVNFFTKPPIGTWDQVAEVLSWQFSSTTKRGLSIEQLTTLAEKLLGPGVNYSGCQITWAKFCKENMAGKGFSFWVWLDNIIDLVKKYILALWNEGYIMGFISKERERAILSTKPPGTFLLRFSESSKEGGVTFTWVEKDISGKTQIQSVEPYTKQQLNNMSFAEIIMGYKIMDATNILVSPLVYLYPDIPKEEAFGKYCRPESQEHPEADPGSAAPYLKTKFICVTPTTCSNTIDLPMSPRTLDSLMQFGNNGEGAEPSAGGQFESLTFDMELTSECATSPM
T3 sequence (P40763 whole entry): as the sequence (P40763 whole entry, species assumed) above
pSTAT3 (Homo sapiens, UniProt P40763), sequence (P40763 whole entry): as the sequence (P40763 whole entry, species assumed) above

SMILES: CC(C)OC(=O)C(C(=O)C(F)(F)F)c1cc(NS(=O)(=O)c2ccc(F)cc2)c2ccccc2c1O (stereo not shown) [Compound C188-7]
- Inhibition of normal murine bone marrow colony formation [1]: inhibited
- Inhibition of STAT3 binding to pY-peptide compared with C188 (STAT3 [2]): improved inhibition
- IC50 (STAT3 [2]): 4.7 ± 2.1 µM
- IC50 (pSTAT1 (Tyr-701) [3]; [10]): 35 ± 39.6 µM
- IC50 (pSTAT5): > 300 µM
- IC50 (pSTAT3 (Tyr-705)): 10.5 ± 13.4 µM

SMILES: CC(C)OC(=O)C(C(=O)C(F)(F)F)c1cc(NS(=O)(=O)c2ccc3c4c(cccc24)C(=O)N3)c2ccccc2c1O (stereo not shown) [Compound C188-8]
- Inhibition of normal murine bone marrow colony formation [1]: inhibited
- Inhibition of STAT3 binding to pY-peptide compared with C188 (STAT3 [2]): improved inhibition
- IC50 (STAT3 [2]): 4.5 ± 2.1 µM
- IC50 (pSTAT1 (Tyr-701) [3]; [10]): 35 ± 25.2 µM
- IC50 (pSTAT5): 23 µM
- IC50 (pSTAT3 (Tyr-705)): 3.4 ± 0.9 µM

SMILES: O=C(O)CSc1cc(NS(=O)(=O)c2ccc(C(=O)O)cc2)c2ccccc2c1O [Compound C188]
- MTD at 14 days [4]: 100 mg/kg/day
- Growth of established UM-SCC-17B xenograft tumors (UM-SCC-17B xenografts): continued to grow
- IC50 (pSTAT1 (Tyr-701) [3]; Figure 2C, Kasumi-1, read-out: Phosphoflow pSTAT1 (Tyr-701) IC50, representative experiment): 23.4 µM
- IC50 (pSTAT5): 40 µM
- Levels of pSTAT3 in tumors (pSTAT3 [5]): not reduced significantly
- IC50 (pSTAT1 (Tyr-701) [6]): 21.9 µM
- EC50 (MB-MDA-468): 0.7 µM
- IC50 (UM-SCC-17B cells; mean, read-out: Anchorage dependent growth (MTT) IC50): 6.3 ± 0.8 µM
- IC50 (UM-SCC-17B cells; Figure 4B, read-out: Anchorage Dependent growth IC50, representative experiment): 5.7 µM

SMILES: NS(=O)(=O)c1cccc2c1C(=O)c1cccc(O)c1C2=O [LLL12]
- IC50 (tumor cells): ~5 µM

SMILES: C[C@@H]1CC(=O)c2c(ccc3c2C(=O)c2cccc(O)c2C3=O)C1 [STA-21]
- IC50 (STAT3 [7]): 12.2 to 18.7 µM

SMILES: O=[N+]([O-])c1ccc2c(c1)S(=O)(=O)C=C2 [Stattic]
- IC50 (STAT3 [8]): 5.1 µM

SMILES: COC(=O)[C@H](Cc1cn(C)cn1)NC(=O)[C@@H](NC(=O)Nc1cc(C(F)(F)F)cc(C(F)(F)F)c1)C(C)C [XZH-5]
- IC50 (pSTAT3 [9]): 20 to 30 µM

From paper PMC5041982, “Small-molecule inhibition of STAT3 in radioresistant head and neck squamous cell carcinoma” (Oncotarget, 2016)
